Test results published in publication doi:10.1101/2025.08.18.25333496, “A Phase 0 Window of Opportunity Trial of LB100, a Protein Phosphatase 2A Inhibitor, in Patients with Recurrent Gliomas” (medRxiv, 2025).
Read-outs that look alike come from different tables or passages of the source.

Tests used:
[1] = set-up: method as in Lixte Biotechnology, Investigators Brochure, unpublished; details: ref Lixte Biotechnology, Investigators Brochure, unpublished, cited from earlier work
[2] = set-up: method as in PMID 28039265; details: dose level above the established safe dose; cited from earlier work
PP2A = system: PP2A; set-up: method as in Lixte Biotechnology, Investigators Brochure, unpublished; details: mice, brain region with intact BBB; ref Lixte Biotechnology, Investigators Brochure, unpublished; cited from earlier work
[3] = target: protein phosphatase 2A (PP2A); details: cited from earlier work
[4] = in vivo
Method: After LB100 infusion and craniotomy all patients were evaluated in person 1–3 days following surgery and followed for at least 30 days after infusion of LB100 for toxicities and adverse events (AEs). All adverse events, including clinically significant abnormal findings on laboratory evaluations, regardless of severity, were followed until return to baseline or stabilization of event. Adverse events were documented from the first study intervention (study day 1) through the final safety visit (study day 30). Beyond 30 days only adverse events which were serious and related to the study intervention were recorded. The descriptions and grading scales found in the revised NCI Common Terminology Criteria for Adverse Events (CTCAE) version 5.0 were utilized for AE reporting.
During the first post-operative week after infusion with LB100, an EKG, renal function tests and liver function tests were performed. Two to three weeks following discharge from the hospital, all patients were given a physical exam and additional blood testing. At approximately 30 days post-craniotomy patients were questioned to determine whether any new AEs had occurred, and any ongoing AEs were followed up on. Prior to removal from the study, at approximately 30 days following drug infusion, all subjects completed a final safety evaluation.

[5] = human, in vivo
Method: (§1) In this current trial, a single dose of LB100 was infused over two hours (+/− 15 minutes) starting two to four hours before surgery.
(§2) Blood and plasma samples for PK measurements were also performed on all participants. Samples were collected at the following time points: 1) Pre-dose; 2) End of infusion (2 hours post-start); 3) 30 minutes post LB100 infusion completion; 4) 1 hour post LB-100 infusion completion; 5) 2 hours post LB100 infusion completion; 6) 4 hours post LB100 infusion completion; 7) 8 hours post LB100 infusion completion.
(§3) LB100 concentration in clinical PK samples (plasma and tumor tissue), was quantified using a validated and robust LC-MS/MS assay developed at the NCI that used LB-105 as an internal standard. This analysis was performed blinded to tumor type. Plasma samples were pre-treated with 50 mM NaOH and tissue samples were homogenized in acetonitrile at a concentration of 100 mg/mL Briefly, samples were mixed with aqueous 10 mM triethylamine (TEA) containing internal standard followed by protein precipitation with 0.5% TEA in acetonitrile. Samples were processed alongside calibration and quality control (QC) standards, ranging from 2–1000 ng/mL (~7.5–3700 nM) and 3–10,000 pg/mg (~1.2–3700 nM) for plasma and brain tissue, respectively. […] The analyte and internal standard were chromatographically separated using a Waters Acquity UPLC BEH C18 (1.7-μm, 2.1×50mm) on a Waters Acuity UPLC system (Waters Corp., Milford, MA). A gradient mobile phase consisting of 5 mM ammonium bicarbonate (aq) and acetronitrile was flowed at a rate of 0.5 to 1 mL/min; the injection volume was 5 uL. After chromatographic separation, the compounds were eluted and detected using a AbSciex QTrap 5500 tandem mass spectrometer in positive ion electrospray mode; MRM transitions were m/z 269.1 → 101.0 and 283.2 → 115.1 for LB-100 and LB-105, respectively.
(§4) Plasma PK was analyzed via a non-compartmental approach using Phoenix WinNonlin v8.3 (Certara Corp, Cary, NC) that was validated per FDA 21CFR Part 11 Regulations. The maximum plasma concentration (Cmax) and the time of Cmax (Tmax) were reported as observed values. A rate constant of the terminal phase, λz, was calculated from the concentration-time curve using uniformly weighted least-squares as the estimation procedure and acceptance criteria of i) r^2 > 0, ii) includes >3-time points. […] Estimated pharmacokinetic parameters included half-life (t1/2; inverse of λz), volume of distribution (Vd; dose divided by product of λz and AUCINF), and clearance (CL; dose divided by AUCINF). Drug concentrations in brain tissue samples were reported and % brain penetrance was approximated via the ratio of brain tissue drug concentration to plasma drug concentrations from matched timepoints post-tissue collection.

clinical [6] = experiment: clinical; set-up: species or system human; details: in vivo
Method: Glioma tissue sampling to detect and quantify LB100 was performed post-dose in each patient, with resection time points from the end of the LB100 infusion recorded. After ensuring adequate diagnostic tissue, remaining tissue was used for PK analysis. Briefly, removed tissues were rinsed with saline immediately (to remove LB100-containing blood and avoid falsely elevated LB100 measurements), then divided, flash-frozen, and stored at −80°C for future batch analysis.
This analysis was performed blinded to tumor type.

clinical [7] = details: human, in vivo
Method: as §1, §2, §3, §4

[8] = one-time administration equivalent to human maximum tolerated dose

## CN1CCN(C(=O)C2C(C(=O)O)[C@H]3CC[C@@H]2O3)CC1 (some centres unmarked) [LB100]
[1]; animal studies
  mean Cmax in plasma: 1110~3664 ng/ml
  mean Cmax in the brain: 17.4~43.5 ng/kg
[1]; [8]
  animals with LB100 detected in implanted tumor: 1 of 3
  animals with LB100 detected in normal brain and liver: 2 of 3
[2]
  patients with grade 3 increases in creatinine clearance: 2 of 4
PP2A
  PP2A enzymatic activity in the lateral habenula: significantly decrease PP2A enzymatic activity
[3]; in glial cell lines, read-out: IC50 of PP2A
  IC50: 200 to 400 nM
[3]; previously established, read-out: minimum IC50 targeting protein phosphatase 2A
  IC50: 200 nM
[4]; human, 30 days
  AEs related to LB100: No AEs were thought to be related to LB100
  total number of AEs: 30
[4]
  AEs rated as serious (grade 3 or 4): Four
[5]
  T1/2: 1.27 (13%) hr
  plasma concentration of LB100 at the time of biopsy, range: 30.81 to 132.26 nM
Clinical [6]; human
  % Brain Pen (ratio of brain:plasma concentrations): 0.31% (159%)
  Kp: 0.0031
  concentration at 5.68 h: 0.51 ng/g
  concentration of LB100 in tumor tissue, range: 0 to 0.67 nM
  percent of drug penetration into the brain, range: 0% to 1.04%
Clinical [6]
  difference in drug levels between contrast and non-contrast regions of tumor: no significant difference in drug levels
Clinical [7]
  Vd: 21.7 L
  clearance: 195 mL/min
  Cmax: 146 ng/mL
Clinical [7]; AUCinf
  AUC(0-inf): 414 ng·h/mL
Clinical [7]; range
  Cmax: 95 to 179 ng/mL
Clinical [7]; T1/2
  half-life: 1.2 h
Clinical [7]; TMAX
  Tmax: 2.1 h
Clinical [7]; Tmax, range
  Tmax: 2.07 to 2.63 h
Clinical [7]; plasma drug exposure (AUCINF), range
  AUC(0-inf): 325 to 468 ng·h/mL
Clinical [7]; plasma half-life (T1/2), range
  half-life: 1.09 to 1.46 h
